Measured values published in patent US20050215614A1, “Substituted indoles and their use as hcv inhibitors” (Rigel Pharmaceuticals, Inc., priority 2003, published 2005).

Test system: HCV replicon
Assay: HCV Replicon Assay (luciferase, 5-2 Luc replicon cells)
Format: cell-based
Settings: 5-2 Luc replicon cells (Huh7), 24-48 hours with compound, luciferase counts
Procedure, shortened: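 Huh7-derived 5-2 Luc replicon cells were seeded at 5000-7500 cells/well, grown 24 h at 37° C. and 5% CO2, then exposed to serial compound concentrations for 24-48 hours.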

Structure (SMILES) | Activity (concentration of inhibitory activity)
Cc1cc2cc(NC(=O)[C@H]3CCCN3)ccc2n1C(=O)c1c(Cl)cccc1Cl [Compound 268] | b (“b” indicates activity is at a concentration greater than 10 micromolar)
CCC(C)(C)c1cc2cc(NC(=O)c3cc(Cl)nc(Cl)c3)ccc2[nH]1 [Compound 289] | a (“a” indicates inhibitory activity at a concentration of less than 10 micromolar)
Cc1cc2cc(NC(=O)C3CC3)ccc2n1C(=O)c1c(Cl)cccc1Cl [Compound 16a-4, 5-Cyclopropanecarbonylamino-1-(2′,6′-dichlorobenzoyl)-2-methylindole] | a (“a” indicates inhibitory activity at a concentration of less than 10 micromolar)
Cc1cn(C(=O)c2c(Cl)cccc2Cl)c2ccc(NC(=O)/C=C/c3ccccc3)cc12 [Compound 237] | b (“b” indicates activity is at a concentration greater than 10 micromolar)
Cc1cc2cc(NC(=O)C(Cl)Cl)ccc2n1C(=O)c1c(Cl)cccc1Cl [Compound 241] | b (“b” indicates activity is at a concentration greater than 10 micromolar)
Cc1ccsc1C(=O)Nc1ccc2c(c1)c(C)cn2C(=O)c1c(Cl)cccc1Cl [Compound 233] | b (“b” indicates activity is at a concentration greater than 10 micromolar)
CCC(C)(C)c1cc2cc(NC(=O)C(C)(C)C)ccc2[nH]1 [Compound 282] | b (“b” indicates activity is at a concentration greater than 10 micromolar)
CCCCC(=O)Nc1ccc2c(c1)cc(C)n2C(=O)c1c(Cl)cccc1Cl [Compound 16a-7, 1-(2′,6′-Dichlorobenzoyl)-5-(n-pentanoyl)amino-2-methylindole] | a (“a” indicates inhibitory activity at a concentration of less than 10 micromolar)
CC(C)(C)c1cc2cc(NC(=O)Cc3cccc([N+](=O)[O-])c3)ccc2[nH]1 [Compound 5b, 2-t-Butyl-5-(3-nitrophenylethanoyl)aminoindole] | b (“b” indicates activity is at a concentration greater than 10 micromolar)
O=C(Cc1cccnc1)Nc1ccc2c(ccn2C(=O)c2c(Cl)cccc2Cl)c1 [Compound 255] | b (“b” indicates activity is at a concentration greater than 10 micromolar)
Cc1cc2cc(NC(=O)C3CCCC3)ccc2n1C(=O)c1c(F)cccc1C(F)(F)F [Compound 16c-1, 5-Cyclopentanecarbonylamino-1-(2′-fluoro-6′-trifluoromethylbenzoyl)-2-methylindole] | a (“a” indicates inhibitory activity at a concentration of less than 10 micromolar)
Cc1cn(C(=O)c2c(Cl)cccc2Cl)c2ccc(NC(=O)C3CCC3)cc12 [Compound 9c, 5-(Cyclobutanecarbonyl)amino-1-(2′,6′-dichlorobenzoyl)-3-methylindole] | a (“a” indicates inhibitory activity at a concentration of less than 10 micromolar)
Cc1cccc(C)c1C(=O)n1c(C)cc2cc(NC(=O)C3CCC(=O)C3)ccc21 (stereo not drawn) [Compound 16f-5, 1-(2′,6′-Dimethylbenzoyl)-5-(3-oxo-1-cyclopentanecarbonyl)amino-2-methylindole] | a (“a” indicates inhibitory activity at a concentration of less than 10 micromolar)
Cc1cccc(F)c1C(=O)n1c(C)cc2cc(NC(=O)C3CCCCC3)ccc21 [Compound 262] | b (“b” indicates activity is at a concentration greater than 10 micromolar)
CC(C)(C)c1cc2cc(NC(=O)Cc3ccc(-c4ccccc4)cc3)ccc2[nH]1 [Compound 221] | b (“b” indicates activity is at a concentration greater than 10 micromolar)
Cc1cc2cc(NC(=O)C3CCN(C(=O)OC(C)(C)C)CC3)ccc2n1C(=O)c1c(F)cccc1Cl [Compound 269] | b (“b” indicates activity is at a concentration greater than 10 micromolar)
CCC(C)(C)c1cc2cc(NC(=O)/C=C/c3ccccc3)ccc2[nH]1 [Compound 283] | b (“b” indicates activity is at a concentration greater than 10 micromolar)
Cc1cc2cc(NC(=O)C3CCCCC3)ccc2n1C(=O)c1c(F)cccc1Cl [Compound 16e-2, 1-(2′-Chloro-6′-fluorobenzoyl)-5-Cyclohexanecarbonylamino-2-methylindole] | a (“a” indicates inhibitory activity at a concentration of less than 10 micromolar)
CC(=O)NCCC(=O)Nc1ccc2[nH]c(C(C)(C)C)cc2c1 [Compound 218] | b (“b” indicates activity is at a concentration greater than 10 micromolar)
Cc1cc2cc(NC(=O)C3CCC3)ccc2n1C(=O)c1c(F)cccc1C(F)(F)F [Compound 16c-3, 5-Cyclobutanecarbonylamino-1-(2′-fluoro-6′-trifluoromethylbenzoyl)-2-methylindole] | a (“a” indicates inhibitory activity at a concentration of less than 10 micromolar)

Structure (SMILES) | Activity (concentration of inhibitory activity)
CC(C)(C)c1cc2cc(NC(=O)c3ccccc3)ccc2[nH]1 [Compound 225] | b (“b” indicates activity is at a concentration greater than 10 micromolar)
COc1cccc(OC)c1C(=O)n1c(C)cc2cc(NC(=O)C3CC3)ccc21 [Compound 16b4, 5-Cyclopropanecarbonylamino-1-(2′,6′-dimethoxybenzoyl)-2-methylindole] | a (“a” indicates inhibitory activity at a concentration of less than 10 micromolar)
CCC(C)(C)c1cc2cc(NC(=O)C(c3ccccc3)c3ccccc3)ccc2[nH]1 [Compound 287] | b (“b” indicates activity is at a concentration greater than 10 micromolar)
COc1cccc(OC)c1C(=O)n1c(C)cc2cc(NC(=O)C3CCCC3)ccc21 [Compound 16b-1, 5-Cyclopentanecarbonylamino-1-(2′,6′-dimethoxybenzoyl)-2-methylindole] | a (“a” indicates inhibitory activity at a concentration of less than 10 micromolar)
CN(C)CCCC(=O)Nc1ccc2[nH]c(C(C)(C)C)cc2c1 [Compound 222] | b (“b” indicates activity is at a concentration greater than 10 micromolar)
CC(C)(C)c1cc2cc(NC(=O)C3CC3)ccc2[nH]1 [Compound 290] | a (“a” indicates inhibitory activity at a concentration of less than 10 micromolar)
Cc1cc2cc(NC(=O)c3sccc3Cl)ccc2n1C(=O)c1c(Cl)cccc1Cl [Compound 256] | b (“b” indicates activity is at a concentration greater than 10 micromolar)
CC(C)(C)c1cc2cc(NC(=O)C3CCCC3)ccc2[nH]1 [Compound 5c, 2-t-Butyl-5-(cyclopentanecarbonyl)aminoindole] | a (“a” indicates inhibitory activity at a concentration of less than 10 micromolar)
Cc1cc2cc(NC(=O)c3cccnc3)ccc2n1C(=O)c1c(F)cccc1C(F)(F)F [Compound 257] | b (“b” indicates activity is at a concentration greater than 10 micromolar)
CCC(C)C(=O)Nc1ccc2c(c1)cc(C)n2C(=O)c1c(Cl)cccc1Cl (stereo not drawn) [Compound 16a-6, 1-(2′,6′-Dichlorobenzoyl)-5-(2-methylbutanoyl)amino-2-methylindole] | a (“a” indicates inhibitory activity at a concentration of less than 10 micromolar)
CC(C)(C)c1cc2cc(NC(=O)c3sccc3Cl)ccc2[nH]1 [Compound 229] | b (“b” indicates activity is at a concentration greater than 10 micromolar)
CCCC(=O)Nc1ccc2c(c1)c(C)cn2C(=O)c1c(Cl)cccc1Cl [Compound 9b, 1-(2′,6′-Dichlorobenzoyl)-3-methyl-5-(n-propanecarbonyl)aminoindole] | a (“a” indicates inhibitory activity at a concentration of less than 10 micromolar)
Cc1cc2cc(NC(=O)C3CCCC3)ccc2n1C(=O)c1cccc(OC(F)(F)F)c1 [Compound 240] | b (“b” indicates activity is at a concentration greater than 10 micromolar)
Cc1cc2cc(NC(=O)C3CCCC3)ccc2n1C(=O)c1cc(Cl)nc(Cl)c1 [Compound 16g-1, 5-Cyclopentanecarbonylamino-l-(2′,6′-dichloro-4′-pyridylcarbonyl)-2-methylindole] | a (“a” indicates inhibitory activity at a concentration of less than 10 micromolar)
CC(=O)N1CCC(C(=O)Nc2ccc3c(c2)cc(C)n3C(=O)c2c(Cl)cccc2Cl)CC1 [Compound 246] | b (“b” indicates activity is at a concentration greater than 10 micromolar)
Cc1cc2cc(NC(=O)c3cccnc3)ccc2n1C(=O)c1c(Cl)cccc1Cl [Compound 16a-10, 1-(2′,6′-Dichlorobenzoyl)-5-(3-pyridylcarbonyl)amino-2-methylindole] | a (“a” indicates inhibitory activity at a concentration of less than 10 micromolar)
CC(C)(C)c1cc2cc(NC(=O)c3cc4ccccc4s3)ccc2[nH]1 [Compound 228] | b (“b” indicates activity is at a concentration greater than 10 micromolar)
CC(C)(C)c1cc2cc(NC(=O)c3cccc(Cl)c3)ccc2[nH]1 [Compound 227] | b (“b” indicates activity is at a concentration greater than 10 micromolar)
Cc1cn(C(=O)c2c(Cl)cccc2Cl)c2ccc(NC(=O)C3CC3)cc12 [Compound 9d, 5-(Cyclopropanecarbonyl)amino-1-(2′,6′-dichlorobenzoyl)-3-methylindole] | a (“a” indicates inhibitory activity at a concentration of less than 10 micromolar)
